This note sets out measurements from patent EP2982368A1, “Small molecule compounds displacing focal adhesion core components” (Universität Konstanz, priority 2014, dated 2016).

In test [1] the target is T1, FAK/Paxillin (Mus musculus, UniProt P34152+Q8VI36).
T1 construct: expressed in transfected cells; host or cells: mouse fibroblasts stably expressing GFP-FAK
Description: FAK/Paxillin displacement by structurally related compounds (FootLocker series, confocal microscopy). The class given is cell-based. As to the method:
To determine whether compounds structurally related to Mb31 and Mb36 are likewise suitable to interfere with FAK localization at focal adhesions, mouse fibroblasts stably expressing GFP-FAK were treated for 30 min with 1, 10 or 20 µM of the following compounds: trans-3-hydroxy-β-nitrostyrene (THBN), trans-4-Chloro-β-nitrostyrene (T4CN), trans-β-nitrostyrene (TBN), 4-chlorocinnamic acid (4CA), and trans-3-(4-bromothiophen-2-yl)acrylic acid (T34BA) (Figures 16 and 17). The cells were analyzed by confocal microscopy for GFP-FAK localization. DMSO treatment served as a vehicle control. […] Additional substituents at the aromatic structures, such as halogen atoms or hydroxy groups may contribute to the reactivity of the compound, but are not essential. Based on these findings, the inventors have extended their structure activity-relationship studies and synthesized additional related compounds, which, similar to Mb31, displace FAK and paxillin at concentrations below 10µM (++), displace FAK and paxillin at concentrations above 10 µM (+), or lack FAK and paxillin displacing activity (-). All these substances were then also nicknamed in the FLocker terminology, resulting in FLocker1 - FLocker24 (Table 2). Table 2: Overview of FootLocker nomenclature, their chemical notation/structure and the activity towards FAK/Paxillin displacement

Test [2] has as its system MDA-MB-231 breast cancer cells. Description: In vitro wound healing assay. In kind it is cell-based, human. Particulars: 3 µM, 25 h, serum-containing growth medium. As to the method: Image J was used to automatically quantify FAK-containing focal adhesions due to local maxima of fluorescence intensity in the GFP-channel (5 to 70 pixel). The number of cells was automatically counted in the Hoechst channel. To test reproducibility of the system 40 control wells were quantified wherein four positions for each well were imaged. […] GFP-FAK mouse embryonic fibroblasts were seeded on fibronectin and incubated for 1 h with the indicated concentrations of the small compounds, respectively. […] GFP-FAK mouse embryonic fibroblasts were seeded on fibronectin and serum-starved overnight. The indicated concentrations of Mb31 were applied for 30 min. Cells were lysed and analyzed for paxillin and FAK protein level as well as FAK Tyr397 phosphorylation. […] The purified kinase domain of FAK was incubated with increasing amounts of Mb31 for 1 h at 30°C together with poly-Glu-Tyr as a FAK substrate. […] Serum-starved GFP-FAK mouse embryonic fibroblasts were stimulated with normal growth medium and incubated for 5 h with the indicated concentrations of the small molecule compounds, respectively. Cell viability was assessed by MTT assay. […] GFP-FAK MEFs were seeded on fibronectin and serum-starved overnight. Migration was stimulated by replacing the medium with normal growth medium. Migration of single cells was tracked for 8 h in 30 min intervals. Migration was recorded from cells that were cultured without serum (A), with serum (B) or with serum in the presence of 3 µM Mb31 (C). […] (A) GFP-FAK MEFs were seeded and serum-starved as in Figure 10. Cell migration was stimulated with normal growth medium and single cells were tracked for 5 h. (B) Mb31 was added and the same cells were tracked for additional 5 h. (C) Mean velocities of differently treated cells were plotted over time. […] NIH-v-Src fibroblasts were seeded on 2 µg/ml FN in DMEM/0.5%BSA and stimulated with 10 ng/ml EGF or kept unstimulated. […] Mouse embryonic fibroblasts (MEFs) were transfected with talin-mCherry and talin dynamics analyzed in focal adhesions using fluorescence recovery after photobleaching (FRAP). Cells were left untreated (A) or treated with 10 µM of Mb31 (B). In untreated cells, the mCherry intensity recovered, indicating replacement of bleached by non-bleached talin and therefore turnover of talin at focal adhesions. […] (C) Wound closure was microscopically analyzed and evaluated using ImageJ software.
To determine if the migration of transformed cells can be blocked by FLocker1 and related compounds, human breast carcinoma cells (MDA-MB-231) were used in in vitro wound healing assays. […] The ability of the cells to migrate and close the wound space was monitored by microscopy and quantified (Figure 18B and C).

Test [3] deals with NIH-v-Src fibroblasts. As to the kind of experiment: EGF-stimulated cell migration of transformed cells. In kind it is cell-based. Particulars: 10 ng/ml EGF, tracked 6 h before and 6 h after addition. The method, then: Image J was used to automatically quantify FAK-containing focal adhesions due to local maxima of fluorescence intensity in the GFP-channel (5 to 70 pixel). The number of cells was automatically counted in the Hoechst channel. To test reproducibility of the system 40 control wells were quantified wherein four positions for each well were imaged. […] GFP-FAK mouse embryonic fibroblasts were seeded on fibronectin and incubated for 1 h with the indicated concentrations of the small compounds, respectively. […] GFP-FAK mouse embryonic fibroblasts were seeded on fibronectin and serum-starved overnight. The indicated concentrations of Mb31 were applied for 30 min. Cells were lysed and analyzed for paxillin and FAK protein level as well as FAK Tyr397 phosphorylation. […] The purified kinase domain of FAK was incubated with increasing amounts of Mb31 for 1 h at 30°C together with poly-Glu-Tyr as a FAK substrate. […] Serum-starved GFP-FAK mouse embryonic fibroblasts were stimulated with normal growth medium and incubated for 5 h with the indicated concentrations of the small molecule compounds, respectively. Cell viability was assessed by MTT assay. […] GFP-FAK MEFs were seeded on fibronectin and serum-starved overnight. Migration was stimulated by replacing the medium with normal growth medium. Migration of single cells was tracked for 8 h in 30 min intervals. Migration was recorded from cells that were cultured without serum (A), with serum (B) or with serum in the presence of 3 µM Mb31 (C). […] (A) GFP-FAK MEFs were seeded and serum-starved as in Figure 10. Cell migration was stimulated with normal growth medium and single cells were tracked for 5 h. […] Mouse embryonic fibroblasts (MEFs) were transfected with talin-mCherry and talin dynamics analyzed in focal adhesions using fluorescence recovery after photobleaching (FRAP). […] (C) Wound closure was microscopically analyzed and evaluated using ImageJ software.
To further determine whether Mb31 interferes with cell motility, GFP-FAK MEFs were serum-stimulated and migration was quantified on a single cell basis (Figures 11 and 12). […]

T1 sequence (P34152 whole entry): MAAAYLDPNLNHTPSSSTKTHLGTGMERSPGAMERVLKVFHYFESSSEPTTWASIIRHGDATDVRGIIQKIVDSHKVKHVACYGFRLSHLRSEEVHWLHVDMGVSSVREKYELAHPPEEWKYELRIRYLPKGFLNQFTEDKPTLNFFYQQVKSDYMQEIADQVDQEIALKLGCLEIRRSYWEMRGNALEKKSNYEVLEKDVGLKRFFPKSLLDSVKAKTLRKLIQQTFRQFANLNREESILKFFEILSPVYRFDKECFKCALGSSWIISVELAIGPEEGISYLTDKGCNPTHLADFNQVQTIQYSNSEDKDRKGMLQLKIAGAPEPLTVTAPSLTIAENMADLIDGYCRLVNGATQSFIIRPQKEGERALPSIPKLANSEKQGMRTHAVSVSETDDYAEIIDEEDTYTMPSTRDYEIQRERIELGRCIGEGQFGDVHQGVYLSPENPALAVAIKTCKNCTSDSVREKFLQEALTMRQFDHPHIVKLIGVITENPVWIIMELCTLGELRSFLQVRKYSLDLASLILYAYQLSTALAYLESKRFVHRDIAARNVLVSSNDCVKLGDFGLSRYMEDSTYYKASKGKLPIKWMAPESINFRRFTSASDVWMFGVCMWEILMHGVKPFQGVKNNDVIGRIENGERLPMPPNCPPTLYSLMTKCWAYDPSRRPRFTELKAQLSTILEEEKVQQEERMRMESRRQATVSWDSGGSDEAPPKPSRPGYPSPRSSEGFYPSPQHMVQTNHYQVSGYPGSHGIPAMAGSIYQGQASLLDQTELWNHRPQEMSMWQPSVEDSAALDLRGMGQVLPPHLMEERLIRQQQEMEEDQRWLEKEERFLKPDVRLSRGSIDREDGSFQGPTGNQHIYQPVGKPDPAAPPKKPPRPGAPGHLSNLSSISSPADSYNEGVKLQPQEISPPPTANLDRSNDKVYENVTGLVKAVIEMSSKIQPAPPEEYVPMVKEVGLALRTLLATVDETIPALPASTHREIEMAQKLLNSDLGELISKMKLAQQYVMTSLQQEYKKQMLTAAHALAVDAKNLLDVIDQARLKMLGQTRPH
T1 sequence (Q8VI36 whole entry): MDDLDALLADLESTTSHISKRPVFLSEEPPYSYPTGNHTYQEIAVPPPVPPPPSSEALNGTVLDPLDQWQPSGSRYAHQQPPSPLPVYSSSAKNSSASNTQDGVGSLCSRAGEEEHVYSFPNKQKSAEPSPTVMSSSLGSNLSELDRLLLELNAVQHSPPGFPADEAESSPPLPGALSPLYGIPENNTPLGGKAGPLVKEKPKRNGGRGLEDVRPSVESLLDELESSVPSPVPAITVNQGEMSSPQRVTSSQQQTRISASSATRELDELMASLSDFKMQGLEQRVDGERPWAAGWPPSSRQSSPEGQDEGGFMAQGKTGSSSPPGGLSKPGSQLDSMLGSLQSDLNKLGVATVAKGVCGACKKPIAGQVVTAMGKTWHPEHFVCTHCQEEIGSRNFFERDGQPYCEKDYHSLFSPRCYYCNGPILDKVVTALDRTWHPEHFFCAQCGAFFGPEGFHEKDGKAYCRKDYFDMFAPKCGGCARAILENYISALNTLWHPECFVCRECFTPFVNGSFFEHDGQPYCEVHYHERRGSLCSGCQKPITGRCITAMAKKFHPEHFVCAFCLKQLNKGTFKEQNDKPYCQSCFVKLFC

For `O=[N+]([O-])/C=C/c1ccccc1F` [FootLocker 9, (E)-1-fluoro-2-(2-nitrovinyl) benzene], in test [1], the “compounds showing the most prominent effect on protein-protein interactions at focal adhesion site” value is “most prominent effect” and the “disruption of protein-protein interactions at focal adhesion site” value is recorded as “efficiently disrupt protein-protein interactions at focal adhesion site”. Also, in test [2], the “migration of cancer cells / wound closure” value is reported as “retarded the migration of the cancer cells”.

For the compound `O=[N+]([O-])/C=C/c1ccc(F)cc1` [FootLocker 14, (E)-1-fluoro-4-(2-nitrovinyl)benzene], in test [1], the “compounds showing the most prominent effect on protein-protein interactions at focal adhesion site” value is “most prominent effect” and the “disruption of protein-protein interactions at focal adhesion site” value is “efficiently disrupt protein-protein interactions at focal adhesion site”. The “migration of cancer cells / wound closure” value in test [2] is given as “retarded the migration of the cancer cells”.

For `O=C(O)/C=C/c1cc(Br)cs1` [FootLocker 24, trans-3-(4-Bromothiophen-2-yl)acrylic acid, reference compound], the “migration of EGF-stimulated cells” value in test [3] is recorded as “no effect”. Also, the FAK displacing ability result in test [1] (GFP-FAK mouse fibroblasts, 30 min, 1, 10 or 20 µM) was “without FAK displacing ability”.

Consider `CN(c1ccccc1CNc1nc(Nc2ccc3c(c2)CC(=O)N3)ncc1C(F)(F)F)S(C)(=O)=O` [PF431396], for which, in test [3], the “migration of EGF-stimulated cells” value is on record as “efficiently inhibit the migration”.
